Test results from patent publication US12280114B2, “Extraction of plant source “medicinal soup” and manual preparation of “herbal medicine” and related products” (BEIJING BAISHIHEKANG PHARMACEUTICAL TECHNOLOGY (BSJPHARMA) …, priority 2018, dated 2025).

Key:
fibronectin and α-SMA = test: Fibronectin/α-SMA protein expression in TGF-β1-stimulated MRC-5 cells after small RNA delivered by lipid or bencaosome (Western blot); type: cell-based, human; details: Examples 5 and 8; nucleic acid 400 nM; TGF-β1 3 ng/mL, 72 hours
A549 cells [1] = test: Confocal fluorescence microscopy of green fluorescent protein delivered by lipid into A549 cells; type: cell-based, human; details: reverse evaporation method; 6 hours
Experimental: Experimental method: The bencaosome was prepared by reverse evaporation method. 0.2 nmol green fluorescent protein dissolved in 20 μl water was added to 100 μl ether solutions containing 0 μg, 0.25 μg, 0.75 μg lipid respectively. After fully mixing, sonication was conducted for 3 min. After evaporated at 60° C. to remove organic solvent, the bencaosome solution was obtained by hydrating with 100 μL opti-MEM. Then the bencaosome was added to A549 cells and co-incubated for 6 hours. The samples were collected and tested. After washing three times with PBS, the samples were fixed with 4% paraformaldehyde. After washing three times with PBS, the samples were stained with Alexa Fluor® 488 phalloidin for 30 min. After washing three times with PBS, the samples were stained with Dapi for 5 min, then washed with PBS and sealed for observation.

A549 cells [2] = test: Digital PCR (ddPCR) detection of nucleic acid delivery by lipid into A549 cells; type: cell-based, human; details: single lipid; boiling or reverse evaporation method
Experimental: Referring to the QX200 Droplet Reader and QuantaSoft Software manual for the protocols, the results were analyzed using QuantaSoft software.
2.2 Experimental method: total RNA was collected and extracted by TRIzol lysis buffer according to the above method, and reverse transcribed to cDNA using High capacity cRNA Reverse Transcription Kit, and the cDNA from different groups was subjected to digital PCR reaction.
2.2 Experimental method: Total RNA was collected and extracted by TRIzol lysis buffer according to the above method, and reverse transcribed to cDNA using TaqMan™ MicroRNA Reverse Transcription KitHigh, and the cDNA from different groups was subjected to digital PCR reaction.
2.2 Experimental method: Total RNA was collected and extracted by TRIzol lysis buffer according to the above method, and reversed to cDNA using High capacity CRNA Reverse Transcription Kit, and the cDNA from different groups was subjected to digital PCR reaction.

A549 cells [3] = test: RT-qPCR detection of nucleic acid delivered by lipid into A549 cells; type: cell-based, human; details: HJT-sRNA-m7 double-stranded RNA, reverse evaporation method
A549 cells [4] = test: Flow cytometry of green fluorescent protein delivered by lipid into A549 cells; type: cell-based, human; details: 10 μg/mL lipid; reverse evaporation method; 6 hours
Experimental: (§1) Experimental method: The bencaosome was prepared by reverse evaporation of ether. 0.2 nmol green fluorescent protein dissolved in 20 μl water was added to 100 μl ether solutions containing 0 μg, 1 μg, 3 μg lipid respectively. After fully mixing, sonication was conducted for 3 min. After evaporation at 60° C. to remove organic solvent, the bencaosome solution was obtained by hydrating with 100 μL opti-MEM. Then the bencaosome was added to A549 cells and co-incubated for 6 hours. The samples were collected and tested. After washing three times with PBS, the samples were digested with trypsin for three minutes. The trypsin was removed, and then the samples were washed with PBS and blown off. Accuri® C6 instrument was used to measure.
as §1, with “method.” for “of ether.”, “The trypsin was removed, and then the samples were washed with PBS and blown off. Accuri® C6 instrument was used to measure.” left out

[5] = In vivo delivery of small RNA into mouse blood, stomach, small intestine and liver via gavage (RT-qPCR); details: Example 11; 10 μL single lipid + sRNA 1 nmol each, heating method; 12 hours
Experimental: [Experimental method] 6-8 weeks old mice, 22-24 g, were raised in SPF room of the Animal Center of the Institute of Basic Medical Sciences of Chinese Academy of Medical Sciences. The mice were fasted for 12 hours before intragastric administration. The mice were randomly divided into 3 groups: (1) control group, 400 μl DEPC-treated water, intragastric administration; (2) free uptake group, small RNA (PGY-sRNA-26, PGY-sRNA-32 and PGY-sRNA-23), each small RNA 1 nmol/animal, dissolved in 400 μl DEPC-treated water, intragastric administration; (3) lipid No. 41 group: a mixture of small RNA (PGY-sRNA-26 and PGY-sRNA-32) and lipid No. 41 prepared by heating method was intragastrically administered, each small RNA 1 nmol/animal, lipid No. 41 10 μl/animal, dissolved in 400 μl DEPC-treated water. All tissue and organ samples were collected after 6 hours of intragastric administration. All small RNAs were single-stranded RNA modified by 3p-terminal 2-O-methylation.
After 12 hours, the sample was collected to detect the amount of entry. In Vivo Delivery Experiment of Lipid Nucleic Acid Mixture • 1. […] LightCycler 480 fluorescence quantitative PCR instrument was used, and the PCR reaction conditions were: 95° C., 5 min for pre-denaturation, followed by the PCR amplification cycle: (1) 95° C., 10 s; (2) 55° C., 10 s; (3) 72° C., 20 s; a total of 40 cycles; 40° C. for 10 s in the end to cool down. […]

A549 cells [6] = test: Confocal fluorescence microscopy of lipid-delivered nucleic acid in A549 cells; type: cell-based, human; details: boiling method; 6 hours
Experimental: (§2) […] Then the mixture was dropped into A549 cells, and after 6 hours of co-incubation, the samples were washed three times with PBS, fixed with 4% paraformaldehyde, washed three times with PBS, stained with Alexa Fluor® 488 phalloidin for 30 min, washed 3 times with PBS, and stained with DAPI for 5 min, washed with PBS, and then sealed.
as §2, with “Then,” for “Then”, “PBS washed,” for “washed with PBS,”

CCCCCCCC/C=C\CCCCCCCCCCCC(=O)O[C@H](COC(=O)CCCCCCCCCCCCCCC)COP(=O)(O)OCCN [lipid No. 40, PE(16:0/22:1)]
inhibition by HJT small RNA at protein level in MRC-5 cells (Western blot) (fibronectin and α-SMA): mediated anti-fibrotic double-stranded RNA HJT-sRNA-m7 entry into MRC-5 cells to down-regulate fibronectin protein expression | entry of green fluorescent protein into A549 cells (confocal microscope) (A549 cells [1]): could effectively deliver protein into A549 cells | delivery of HJT-sRNA-m7 dsRNA into A549 cells (ddPCR) (A549 cells [2]): could effectively deliver HJT-sRNA-m7 dsRNA into A549 cells | delivery effect of lipid compared with RNAiMAX (RT-qPCR) (A549 cells [3]): ½ | efficiency to deliver green fluorescent protein into A549 cells (A549 cells [4]): 7.2% | delivery of sRNA single-stranded nucleic acid into mouse blood via oral administration [5]: the delivery effect was better than POPC and Lipofectamine RNAiMAX | entry of PGY-sRNA-6-Cy3 into A549 cells (confocal microscopy) (A549 cells [6]): could effectively deliver single-stranded RNA into A549 cells
